Assay results as given in paper PMC5947877 (Phytomedicine : international journal of phytotherapy and …, 2017).
“Also recorded” adds a separate entry of the source.

Key:
[1] = molecular target: T1, recombinant human MAO-A (Homo sapiens, UniProt P21397); assay: Enzyme kinetics and mechanism of inhibition with MAO-A; format: biochemical; conditions: for Type of Inhibition, Monoamine oxidase-A: Lineweaver-Burk analysis, reversibility from dialysis
T1 sequence (P21397 1-527): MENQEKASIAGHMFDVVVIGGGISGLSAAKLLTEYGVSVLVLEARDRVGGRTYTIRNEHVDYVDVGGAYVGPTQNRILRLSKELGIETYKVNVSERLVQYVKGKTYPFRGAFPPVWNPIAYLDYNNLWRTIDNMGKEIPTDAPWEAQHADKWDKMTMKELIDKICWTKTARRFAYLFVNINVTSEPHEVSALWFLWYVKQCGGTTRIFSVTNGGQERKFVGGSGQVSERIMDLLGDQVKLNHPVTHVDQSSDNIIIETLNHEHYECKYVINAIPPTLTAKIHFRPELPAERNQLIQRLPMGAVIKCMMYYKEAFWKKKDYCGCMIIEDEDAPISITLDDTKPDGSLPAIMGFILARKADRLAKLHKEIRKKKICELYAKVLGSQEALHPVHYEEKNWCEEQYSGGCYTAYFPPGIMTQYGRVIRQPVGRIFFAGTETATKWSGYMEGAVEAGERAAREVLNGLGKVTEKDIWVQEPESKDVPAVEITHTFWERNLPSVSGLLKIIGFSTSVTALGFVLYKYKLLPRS

[2] = molecular target: T1, recombinant human MAO-A; conditions: dialysis 14-16 h at 4 °C
[3] = molecular target: T2, recombinant human MAO-B (Homo sapiens, UniProt P27338); assay: Fluorometric kynuramine deamination assay, MAO-B inhibition; format: biochemical
T2 sequence (P27338 1-520): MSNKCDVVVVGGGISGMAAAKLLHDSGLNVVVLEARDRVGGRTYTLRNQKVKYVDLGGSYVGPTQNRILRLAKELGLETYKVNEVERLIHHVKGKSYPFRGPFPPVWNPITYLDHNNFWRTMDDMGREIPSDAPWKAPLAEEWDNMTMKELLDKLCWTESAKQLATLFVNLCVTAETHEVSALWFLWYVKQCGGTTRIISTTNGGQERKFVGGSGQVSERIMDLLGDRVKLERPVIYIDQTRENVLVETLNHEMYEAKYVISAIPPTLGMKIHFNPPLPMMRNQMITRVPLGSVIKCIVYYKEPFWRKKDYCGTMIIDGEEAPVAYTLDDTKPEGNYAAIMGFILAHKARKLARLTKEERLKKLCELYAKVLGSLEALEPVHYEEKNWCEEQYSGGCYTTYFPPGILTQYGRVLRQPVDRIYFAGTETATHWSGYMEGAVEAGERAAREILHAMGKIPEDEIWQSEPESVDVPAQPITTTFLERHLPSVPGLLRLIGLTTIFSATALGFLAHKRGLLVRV

[4] = molecular target: T1, recombinant human MAO-A; assay: Fluorometric kynuramine deamination assay, MAO-A inhibition; format: biochemical; conditions: ratio of IC50 MAO-B / MAO-A

| SMILES | Ki [1] [µM] | Type of Inhibition, Monoamine oxidase-A [1] | Type of Inhibition, Monoamine oxidase-A ([1]; listed as myricetin) | nature of binding to MAO-A (recovery of activity after dialysis) [2] | IC50 [3] [µM] | preferential MAO-A inhibition over MAO-B (fold) [4] [fold] | Type of Inhibition, Monoamine oxidase-A ([1]; listed as quercetin) |
| --- | --- | --- | --- | --- | --- | --- | --- |
| O=c1c(O)c(-c2cc(O)c(O)c(O)c2)oc2cc(O)cc(O)c12 [Myricetin, myricetin] | 2.24 ± 0.25 | Mixed/Reversible | mixed-type | reversible binding; also recorded: reversible inhibition | 59.3 ± 1.78 |  |  |
| O=c1c(O)c(-c2ccc(O)c(O)c2)oc2cc(O)cc(O)c12 [Quercetin, quercetin] | 0.29 ± 0.03 | Competitive/Reversible |  | reversible binding; also recorded: reversible inhibition | 28.4 ± 5.41 | 18 | competitive |
